Assay results taken from article PMC3130732, “E. coli Histidine Triad Nucleotide Binding Protein 1 (ecHinT) Is a Catalytic Regulator of D-Alanine Dehydrogenase (DadA) Activity In Vivo” (PLoS ONE, 2011).

Target: T1, E. coli Histidine Triad Nucleotide Binding Protein 1 (ecHinT) (Escherichia coli, UniProt P0ACE7)
T1 construct: gene hinT
Test: spectrophotometric phosphoramidase assay
Assay type: biochemical

T1 sequence (P0ACE7 whole entry): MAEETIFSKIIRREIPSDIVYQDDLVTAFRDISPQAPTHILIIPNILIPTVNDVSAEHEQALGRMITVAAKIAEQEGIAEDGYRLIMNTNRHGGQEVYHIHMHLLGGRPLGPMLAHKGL

Work on `Nc1nc2c(ncn2[C@@H]2O[C@H](COC(=O)NCCc3c[nH]c4ccccc34)[C@@H](O)[C@H]2O)c(=O)[nH]1` [TpGc, 5′-O-[(3-indolyl)-1-ethyl]carbamoyl guanosine] yielded a Ki of 42 µM.
